Reference: article PMC7155171, “Probing the Open Global Health Chemical Diversity Library for Multistage-Active Starting Points for Next-Generation Antimalarials” (ACS Infectious Diseases, 2020)

Columns and labels:
[1] = system: P. berghei liver stage (PbLuc); experiment: P. berghei luciferase liver stage (PbLuc) assay in HepG2-A16-CD81 hepatocytes; assay type: cell-based, Plasmodium berghei; conditions: Plasmodium berghei; for IC50: HepG2-A16-CD81, 12pt dose response, read-out: PbLuc 12pt dose response: IC50; for Emax: HepG2-A16-CD81, 48 h, 12pt dose response, maximum inhibition
[2] = target: recombinant firefly luciferase (Photinus pyralis, UniProt P08659); experiment: biochemical; conditions: dose response; for Emax: maximum inhibition, read-out: rLuc inhibition dose response: Maximum inhibition (%); for IC50: read-out: rLuc inhibition dose response: IC50
Chain of recombinant firefly luciferase (P08659 whole entry): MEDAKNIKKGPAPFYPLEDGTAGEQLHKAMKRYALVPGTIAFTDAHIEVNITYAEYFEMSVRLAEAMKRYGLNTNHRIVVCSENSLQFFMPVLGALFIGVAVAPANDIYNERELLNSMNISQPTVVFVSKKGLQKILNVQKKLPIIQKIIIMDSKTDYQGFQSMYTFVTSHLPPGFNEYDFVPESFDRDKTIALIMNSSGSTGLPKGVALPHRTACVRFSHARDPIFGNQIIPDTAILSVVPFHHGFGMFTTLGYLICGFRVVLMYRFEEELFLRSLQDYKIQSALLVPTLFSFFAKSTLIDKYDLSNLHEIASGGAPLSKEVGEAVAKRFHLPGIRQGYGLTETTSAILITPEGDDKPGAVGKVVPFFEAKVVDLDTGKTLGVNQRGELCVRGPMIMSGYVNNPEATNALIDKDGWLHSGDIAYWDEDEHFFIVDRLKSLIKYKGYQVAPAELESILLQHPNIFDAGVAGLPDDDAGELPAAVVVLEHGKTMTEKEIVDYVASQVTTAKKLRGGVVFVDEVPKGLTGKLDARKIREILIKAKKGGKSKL

[3] = HepG2 cytotoxicity screening (CellTiter-Glo); conditions: human, uninfected HepG2-A16-CD81 (EGFP) hepatocytes
[4] = system: HepG2-A16-CD81 hepatocytes; experiment: HepG2 cytotoxicity screening (CellTiter-Glo); conditions: for HepG2 cytotoxicity 12pt dose response: Maximum inhibition (%): 12pt dose response

CC(C)Cn1ccc2c(NC(=O)c3n[nH]c4c3CCC4)cccc21 [UCSD-0786893]
IC50 [1]: 13.6 µM
Emax [2]: 38.5%
IC50 [2]: > 25 µM
IC50 [3]: > 25 µM
HepG2 Cytotoxicity primary screen (2uM): % Inhibition [4]: 3.16%
HepG2 cytotoxicity 12pt dose response: Maximum inhibition (%) [4]: 32.3%

CCCc1cc(=O)[nH]c(-n2nc(C3CC3)cc2N)n1 [UCSD-0786964]
IC50 [1]: 4.69 µM
Emax [2]: 12.2%
IC50 [2]: > 25 µM
IC50 [3]: 20.5 µM
inhibition at 2 µM [3]: -26.2%
HepG2 cytotoxicity 12pt dose response: Maximum inhibition (%) [4]: 75.4%

CC(C)c1cc(=O)[nH]c(-n2nc(C3CC3)cc2N)n1 [UCSD-0786965]
IC50 [1]: 1.61 µM
Emax [1]: 83%
Emax [2]: 1.26%
IC50 [2]: > 25 µM
IC50 [3]: 18.9 µM
inhibition at 2 µM [3]: 3.79%
HepG2 cytotoxicity 12pt dose response: Maximum inhibition (%) [4]: 73.6%

Cc1cc(NC(=O)C(C)C)n(-c2nc(C)c(C)c(=O)[nH]2)n1 [UCSD-0786977]
IC50 [1]: 0.129 µM
Emax [1]: 100%
Emax [2]: 12.4%
IC50 [2]: > 50 µM
IC50 [3]: > 25 µM
HepG2 cytotoxicity 12pt dose response: Maximum inhibition (%) [4]: 36.8%

Cc1cc(C(=O)N2CCN(c3nc4c(C(C)C)cccc4s3)CC2)no1 [UCSD-0787009]
IC50 [1]: 0.822 µM
Emax [1]: 98.9%
Emax [2]: 34.2%
IC50 [2]: > 50 µM
IC50 [3]: > 25 µM
HepG2 cytotoxicity 12pt dose response: Maximum inhibition (%) [4]: 1.29%

Cc1cc(C(=O)N2CCN(c3nc4c(C(C)C)cccc4s3)CC2)on1 [UCSD-0787150]
IC50 [1]: 4 µM
Emax [1]: 101%
Emax [2]: 11.6%
IC50 [2]: > 50 µM
IC50 [3]: > 25 µM
HepG2 cytotoxicity 12pt dose response: Maximum inhibition (%) [4]: 21.7%

CCc1cc(=O)[nH]c(-n2nc(C3CC3)cc2NC(=O)C2CC2)n1 [UCSD-0787226]
IC50 [1]: 0.35 µM
Emax [1]: 92.4%
Emax [2]: 8.54%
IC50 [2]: > 25 µM
IC50 [3]: > 25 µM
inhibition at 2 µM [3]: -1.99%
HepG2 cytotoxicity 12pt dose response: Maximum inhibition (%) [4]: 54%

CCc1c(C)nc(-n2nc(C3CC3)cc2NC(C)=O)[nH]c1=O [UCSD-0787229]
IC50 [1]: 0.0826 µM
Emax [1]: 97.2%
Emax [2]: 16.1%
IC50 [2]: > 50 µM
IC50 [3]: > 25 µM
HepG2 cytotoxicity 12pt dose response: Maximum inhibition (%) [4]: 3.74%

O=S(=O)(c1ccc(Cl)s1)N1CCN(Cc2nc(-c3ccco3)cs2)CC1 [UCSD-0787251]
IC50 [1]: 11 µM
Emax [1]: 93.6%
Emax [2]: 13.6%
IC50 [2]: > 25 µM
IC50 [3]: 22 µM
HepG2 Cytotoxicity primary screen (2uM): % Inhibition [4]: 12.14%
HepG2 cytotoxicity 12pt dose response: Maximum inhibition (%) [4]: 65.6%

CC(C)(C)NC(=O)N1CCC(Oc2ccc(C(F)(F)F)cn2)CC1 [UCSD-0787817]
IC50 [1]: 11.4 µM
Emax [1]: 93.5%
Emax [2]: 13%
IC50 [2]: > 25 µM
IC50 [3]: > 25 µM
HepG2 Cytotoxicity primary screen (2uM): % Inhibition [4]: -4.73%
HepG2 cytotoxicity 12pt dose response: Maximum inhibition (%) [4]: 16.5%

CCOc1ccc(S(=O)(=O)Nc2cnc(OC)nc2OC)cc1 [UCSD-0788088]
IC50 [1]: 5.14 µM
Emax [1]: 71.2%
Emax [2]: -1.04%
IC50 [2]: > 25 µM
IC50 [3]: > 25 µM
inhibition at 2 µM [3]: 4.64%
HepG2 cytotoxicity 12pt dose response: Maximum inhibition (%) [4]: 61%

COc1cccc(CN2CCc3nc(C(=O)NCC(C)C)sc3CC2)c1 [UCSD-0790206]
IC50 [1]: 9.85 µM
Emax [2]: 32%
IC50 [2]: > 25 µM
IC50 [3]: > 25 µM
HepG2 Cytotoxicity primary screen (2uM): % Inhibition [4]: -10.23%
HepG2 cytotoxicity 12pt dose response: Maximum inhibition (%) [4]: 35.9%

O=C([C@H]1C[C@@H]2CCN(c3cccc(F)c3)C[C@H]2O1)N1CCCC1 [UCSD-0792262]
IC50 [1]: 10.3 µM
Emax [1]: 93.8%
Emax [2]: 28.4%
IC50 [2]: > 25 µM
IC50 [3]: > 25 µM
HepG2 Cytotoxicity primary screen (2uM): % Inhibition [4]: 4.38%

O=C(NCCCN1CCCCC1)c1ccc(-n2ccc3ccccc32)s1 [UCSD-0795001]
IC50 [1]: 11.6 µM
Emax [1]: 116%
Emax [2]: -4.22%
IC50 [2]: > 25 µM
IC50 [3]: 22.1 µM
HepG2 Cytotoxicity primary screen (2uM): % Inhibition [4]: 0.00%
HepG2 cytotoxicity 12pt dose response: Maximum inhibition (%) [4]: 66.1%
